# Test system: USP11
# Experiment: USP11 immunoblotting of irradiated U2OS cells (USP11 stability after DNA damage)
# Assay type: cell-based
# Details: irradiated (20 Gy), inhibitor at 5 μM, USP11 immunoblot, FIG. 11g
# Experimental: FIG. 11. Characterization of USP11 protein stability a, U2OS cells synchronized in G1 or S/G2 were treated with cyclohexamide (CHX) and processed at the indicated time points to monitor USP11 stability. b, Immunoprecipitation (IP) of PALB2 from extracts prepared from 293T cells that were synchronized in G1 or S phase and treated or not with IR (20 Gy). c, U2OS cells were irradiated with a dose of 2 or 20 Gy and processed for USP11 immunoblotting at the indicated times post-IR. Actin was used as a loading control. d, U2OS cells, mock-treated or incubated with the ATM inhibitor KU55933 (ATMi), ATR inhibitor VE-821 (ATRi) or DNA-PKcs inhibitor NU7441 (DNAPKi), were irradiated (20 Gy) and processed for USP11 and actin (loading control) immunoblotting. e, Similar experiment to d except that cells were exposed to ultraviolet (UV) radiation (50 mJ/cm^−2). f, U2OS cells, mock-treated or incubated with the proteasome inhibitor MG132, were irradiated (20 Gy) and processed for USP11 and actin (loading control) immunoblotting. g, U2OS cells, mock-treated or incubated with the Cullin inhibitor MLN4924, were irradiated (20 Gy) and processed for USP11 and actin (loading control) immunoblotting. […]
smiles,measurement,value
NS(=O)(=O)OC[C@@H]1C[C@@H](n2ccc3c(N[C@H]4CCc5ccccc54)ncnc32)C[C@@H]1O [MLN4924],DNA damage-induced degradation of USP11,protected USP11 from DNA damage-induced degradation
